In the NIST ThermoML archive (doi:10.1021/je900596d):
Numbers after ± are expanded uncertainties.

Conditions: for mass density: Vibrating tube method

FC(F)=C(F)C(F)(F)F [hexafluoropropene]
Conditions	mass density [kg/m3]	vapor or sublimation pressure [kPa]
355.18 K, 9543 kPa, Liquid	1138.93 ± 1.2	–
355.18 K, 9592.9 kPa, Liquid	1139.78 ± 1.2	–
355.18 K, 9645.5 kPa, Liquid	1140.58 ± 1.2	–
355.18 K, 9695.7 kPa, Liquid	1141.39 ± 1.2	–
355.18 K, 9747.1 kPa, Liquid	1142.23 ± 1.2	–
355.18 K, 9796.2 kPa, Liquid	1143.06 ± 1.2	–
355.18 K, 9846.2 kPa, Liquid	1143.79 ± 1.2	–
355.18 K, 9896.5 kPa, Liquid	1144.79 ± 1.2	–
355.18 K, 9947.2 kPa, Liquid	1145.37 ± 1.2	–
355.18 K, 9998.1 kPa, Liquid	1146.19 ± 1.2	–
355.24 K, Liquid, Closed cell (Static) method	–	2903 ± 5
355.27 K, 1.7 kPa, Fluid (supercritical or subcritical phases)	0.1 ± 0.03	–
355.27 K, 2.5 kPa, Fluid (supercritical or subcritical phases)	0.14 ± 0.03	–
355.27 K, 3.1 kPa, Fluid (supercritical or subcritical phases)	0.19 ± 0.03	–
355.27 K, 3.6 kPa, Fluid (supercritical or subcritical phases)	0.23 ± 0.03	–
355.27 K, 4.8 kPa, Fluid (supercritical or subcritical phases)	0.28 ± 0.03	–
355.27 K, 5.8 kPa, Fluid (supercritical or subcritical phases)	0.37 ± 0.03	–
355.27 K, 6.4 kPa, Fluid (supercritical or subcritical phases)	0.38 ± 0.03	–
355.27 K, 7.6 kPa, Fluid (supercritical or subcritical phases)	0.44 ± 0.03	–
355.27 K, 8.8 kPa, Fluid (supercritical or subcritical phases)	0.47 ± 0.03	–
355.27 K, 9.4 kPa, Fluid (supercritical or subcritical phases)	0.5 ± 0.03	–
355.27 K, 10 kPa, Fluid (supercritical or subcritical phases)	0.52 ± 0.03	–
355.27 K, 11.3 kPa, Fluid (supercritical or subcritical phases)	0.61 ± 0.03	–
355.27 K, 12.5 kPa, Fluid (supercritical or subcritical phases)	0.64 ± 0.03	–
355.27 K, 13.7 kPa, Fluid (supercritical or subcritical phases)	0.67 ± 0.03	–
355.27 K, 15 kPa, Fluid (supercritical or subcritical phases)	0.66 ± 0.03	–
355.27 K, 16 kPa, Fluid (supercritical or subcritical phases)	0.83 ± 0.03	–
355.27 K, 18.5 kPa, Fluid (supercritical or subcritical phases)	0.93 ± 0.03	–
355.27 K, 19.9 kPa, Fluid (supercritical or subcritical phases)	1.04 ± 0.03	–
355.27 K, 21.2 kPa, Fluid (supercritical or subcritical phases)	1.09 ± 0.03	–
355.27 K, 22.2 kPa, Fluid (supercritical or subcritical phases)	1.15 ± 0.03	–
355.27 K, 23.4 kPa, Fluid (supercritical or subcritical phases)	1.24 ± 0.03	–
355.27 K, 24.5 kPa, Fluid (supercritical or subcritical phases)	1.28 ± 0.03	–
355.27 K, 25.7 kPa, Fluid (supercritical or subcritical phases)	1.37 ± 0.03	–
355.27 K, 26.7 kPa, Fluid (supercritical or subcritical phases)	1.39 ± 0.03	–
355.27 K, 27.9 kPa, Fluid (supercritical or subcritical phases)	1.42 ± 0.03	–
355.27 K, 29.2 kPa, Fluid (supercritical or subcritical phases)	1.46 ± 0.03	–
355.27 K, 30.3 kPa, Fluid (supercritical or subcritical phases)	1.62 ± 0.03	–
355.27 K, 31.3 kPa, Fluid (supercritical or subcritical phases)	1.64 ± 0.03	–
355.27 K, 32.3 kPa, Fluid (supercritical or subcritical phases)	1.71 ± 0.03	–
355.27 K, 34.6 kPa, Fluid (supercritical or subcritical phases)	1.82 ± 0.03	–
355.27 K, 37.4 kPa, Fluid (supercritical or subcritical phases)	1.95 ± 0.03	–
355.27 K, 41.7 kPa, Fluid (supercritical or subcritical phases)	2.14 ± 0.03	–
355.27 K, 47.8 kPa, Fluid (supercritical or subcritical phases)	2.49 ± 0.03	–
355.27 K, 53.6 kPa, Fluid (supercritical or subcritical phases)	2.8 ± 0.03	–
355.27 K, 58 kPa, Fluid (supercritical or subcritical phases)	3.03 ± 0.03	–
355.27 K, 62.5 kPa, Fluid (supercritical or subcritical phases)	3.28 ± 0.03	–
355.27 K, 67.1 kPa, Fluid (supercritical or subcritical phases)	3.54 ± 0.03	–
355.27 K, 71.8 kPa, Fluid (supercritical or subcritical phases)	3.72 ± 0.03	–
355.27 K, 76 kPa, Fluid (supercritical or subcritical phases)	4.09 ± 0.03	–
355.27 K, 80.2 kPa, Fluid (supercritical or subcritical phases)	4.21 ± 0.03	–
355.27 K, 84.7 kPa, Fluid (supercritical or subcritical phases)	4.42 ± 0.03	–
355.27 K, 89.7 kPa, Fluid (supercritical or subcritical phases)	4.7 ± 0.03	–
355.27 K, 94.5 kPa, Fluid (supercritical or subcritical phases)	4.96 ± 0.03	–
355.27 K, 99.2 kPa, Fluid (supercritical or subcritical phases)	5.14 ± 0.03	–
355.27 K, 108.4 kPa, Fluid (supercritical or subcritical phases)	5.69 ± 0.03	–
355.27 K, 121.7 kPa, Fluid (supercritical or subcritical phases)	6.32 ± 0.03	–
355.27 K, 136.3 kPa, Fluid (supercritical or subcritical phases)	7.14 ± 0.03	–
355.27 K, 150.1 kPa, Fluid (supercritical or subcritical phases)	7.91 ± 0.04	–
355.27 K, 175.9 kPa, Fluid (supercritical or subcritical phases)	9.29 ± 0.04	–
355.27 K, 189 kPa, Fluid (supercritical or subcritical phases)	9.98 ± 0.04	–
355.27 K, 202.9 kPa, Fluid (supercritical or subcritical phases)	10.67 ± 0.04	–
355.27 K, 215.8 kPa, Fluid (supercritical or subcritical phases)	11.37 ± 0.04	–
355.27 K, 229.6 kPa, Fluid (supercritical or subcritical phases)	12.15 ± 0.04	–
355.27 K, 243.8 kPa, Fluid (supercritical or subcritical phases)	12.89 ± 0.04	–
355.27 K, 256.5 kPa, Fluid (supercritical or subcritical phases)	13.54 ± 0.04	–
355.27 K, 269.4 kPa, Fluid (supercritical or subcritical phases)	14.27 ± 0.04	–
355.27 K, 282.8 kPa, Fluid (supercritical or subcritical phases)	15.02 ± 0.04	–
355.27 K, 296.5 kPa, Fluid (supercritical or subcritical phases)	15.74 ± 0.04	–
355.27 K, 310.2 kPa, Fluid (supercritical or subcritical phases)	16.52 ± 0.04	–
355.27 K, 323.9 kPa, Fluid (supercritical or subcritical phases)	17.3 ± 0.04	–
355.27 K, 337.3 kPa, Fluid (supercritical or subcritical phases)	18.03 ± 0.04	–
355.27 K, 350.9 kPa, Fluid (supercritical or subcritical phases)	18.72 ± 0.04	–
355.27 K, 364 kPa, Fluid (supercritical or subcritical phases)	19.44 ± 0.04	–
355.27 K, 377.5 kPa, Fluid (supercritical or subcritical phases)	20.18 ± 0.04	–
355.27 K, 390.9 kPa, Fluid (supercritical or subcritical phases)	20.91 ± 0.04	–
355.27 K, 410.7 kPa, Fluid (supercritical or subcritical phases)	22.1 ± 0.04	–
355.27 K, 423.7 kPa, Fluid (supercritical or subcritical phases)	22.78 ± 0.05	–
355.27 K, 436.7 kPa, Fluid (supercritical or subcritical phases)	23.55 ± 0.05	–
355.27 K, 449.9 kPa, Fluid (supercritical or subcritical phases)	24.26 ± 0.05	–
355.27 K, 463 kPa, Fluid (supercritical or subcritical phases)	25.02 ± 0.05	–
355.27 K, 475.5 kPa, Fluid (supercritical or subcritical phases)	25.74 ± 0.05	–
355.27 K, 489.9 kPa, Fluid (supercritical or subcritical phases)	26.57 ± 0.05	–
355.27 K, 511.2 kPa, Fluid (supercritical or subcritical phases)	27.76 ± 0.05	–
355.27 K, 534.4 kPa, Fluid (supercritical or subcritical phases)	29.14 ± 0.05	–
355.27 K, 558.1 kPa, Fluid (supercritical or subcritical phases)	30.53 ± 0.05	–
355.27 K, 570.3 kPa, Fluid (supercritical or subcritical phases)	31.19 ± 0.05	–
355.27 K, 593.4 kPa, Fluid (supercritical or subcritical phases)	32.6 ± 0.06	–
355.27 K, 605.4 kPa, Fluid (supercritical or subcritical phases)	33.29 ± 0.06	–
355.27 K, 629.1 kPa, Fluid (supercritical or subcritical phases)	34.75 ± 0.06	–
355.27 K, 652.5 kPa, Fluid (supercritical or subcritical phases)	36.04 ± 0.06	–
355.27 K, 675.6 kPa, Fluid (supercritical or subcritical phases)	37.5 ± 0.06	–
355.27 K, 698.5 kPa, Fluid (supercritical or subcritical phases)	38.93 ± 0.06	–
355.27 K, 710.6 kPa, Fluid (supercritical or subcritical phases)	39.6 ± 0.06	–
355.27 K, 733.2 kPa, Fluid (supercritical or subcritical phases)	40.98 ± 0.07	–
355.27 K, 755.9 kPa, Fluid (supercritical or subcritical phases)	42.45 ± 0.07	–
355.27 K, 778.4 kPa, Fluid (supercritical or subcritical phases)	43.82 ± 0.07	–
355.27 K, 800.7 kPa, Fluid (supercritical or subcritical phases)	45.25 ± 0.07	–
355.27 K, 822.7 kPa, Fluid (supercritical or subcritical phases)	46.65 ± 0.07	–
355.27 K, 844.7 kPa, Fluid (supercritical or subcritical phases)	48.08 ± 0.07	–
355.27 K, 866.4 kPa, Fluid (supercritical or subcritical phases)	49.39 ± 0.08	–
355.27 K, 887.6 kPa, Fluid (supercritical or subcritical phases)	50.79 ± 0.08	–
355.27 K, 909.3 kPa, Fluid (supercritical or subcritical phases)	52.17 ± 0.08	–
355.27 K, 921.7 kPa, Fluid (supercritical or subcritical phases)	53.01 ± 0.08	–
355.27 K, 942.8 kPa, Fluid (supercritical or subcritical phases)	54.34 ± 0.08	–
355.27 K, 963 kPa, Fluid (supercritical or subcritical phases)	55.68 ± 0.08	–
355.27 K, 985.5 kPa, Fluid (supercritical or subcritical phases)	57.29 ± 0.09	–
355.27 K, 1007.7 kPa, Fluid (supercritical or subcritical phases)	58.71 ± 0.09	–
355.27 K, 1053.4 kPa, Fluid (supercritical or subcritical phases)	61.79 ± 0.09	–
355.27 K, 1076.3 kPa, Fluid (supercritical or subcritical phases)	63.38 ± 0.09	–
355.27 K, 1097.4 kPa, Fluid (supercritical or subcritical phases)	64.83 ± 0.1	–
355.27 K, 1119.1 kPa, Fluid (supercritical or subcritical phases)	66.35 ± 0.1	–
355.27 K, 1140.9 kPa, Fluid (supercritical or subcritical phases)	67.89 ± 0.1	–
355.27 K, 1162.7 kPa, Fluid (supercritical or subcritical phases)	69.42 ± 0.1	–
355.27 K, 1184.6 kPa, Fluid (supercritical or subcritical phases)	70.94 ± 0.1	–
355.27 K, 1205.7 kPa, Fluid (supercritical or subcritical phases)	72.55 ± 0.11	–
355.27 K, 1226.6 kPa, Fluid (supercritical or subcritical phases)	74.03 ± 0.11	–
355.27 K, 1248.5 kPa, Fluid (supercritical or subcritical phases)	75.63 ± 0.11	–
355.27 K, 1268.8 kPa, Fluid (supercritical or subcritical phases)	77.12 ± 0.11	–
355.27 K, 1291.7 kPa, Fluid (supercritical or subcritical phases)	78.82 ± 0.12	–
355.27 K, 1314.5 kPa, Fluid (supercritical or subcritical phases)	80.53 ± 0.12	–
355.27 K, 1336.6 kPa, Fluid (supercritical or subcritical phases)	82.25 ± 0.12	–
355.27 K, 1358.9 kPa, Fluid (supercritical or subcritical phases)	83.95 ± 0.12	–
355.27 K, 1380.8 kPa, Fluid (supercritical or subcritical phases)	85.69 ± 0.13	–
355.27 K, 1401.7 kPa, Fluid (supercritical or subcritical phases)	87.28 ± 0.13	–
355.27 K, 1423 kPa, Fluid (supercritical or subcritical phases)	89.04 ± 0.13	–
355.27 K, 1445 kPa, Fluid (supercritical or subcritical phases)	90.76 ± 0.13	–
355.27 K, 1465.4 kPa, Fluid (supercritical or subcritical phases)	92.28 ± 0.13	–
355.27 K, 1486.6 kPa, Fluid (supercritical or subcritical phases)	94.07 ± 0.14	–
355.27 K, 1509.1 kPa, Fluid (supercritical or subcritical phases)	95.9 ± 0.14	–
355.27 K, 1531 kPa, Fluid (supercritical or subcritical phases)	97.69 ± 0.14	–
355.27 K, 1552.1 kPa, Fluid (supercritical or subcritical phases)	99.45 ± 0.15	–
355.27 K, 1573.2 kPa, Fluid (supercritical or subcritical phases)	101.27 ± 0.15	–
